Here are results for 4 molecules from patent publication US20240043514A1, “NOVEL METHOD FOR PRODUCING ANTIBODIES” (TSINGHUA UNIVERSITY, priority 2017, published 2024).

For one assay, the system named is TLR7/8. Description: Inhibition of the effect of R848 (TLR7/8 agonist) by E6446. Format: cell-based. On the procedure:
(§1) E6446 dihydrochloride (E6446-HCL), a synthetic nucleic acid-sensing TLRs antagonist. It's IC50 for CpG2006 (TLR9 agonist) was in the range of 0.01-0.03 uM (data not shown). But it required 2-8 uM (a 100-fold higher concentration) to inhibit the effect of R848 (TLR7/8 agonist) (data not shown).

Assay [1] concerns Follicular dendritic cells (FDCs). The assay can be described thus: Flow cytometry of follicular dendritic cells (CD3-CD19-CD21+/CD35+) in PBMCs. Format: cell-based, human. The settings on record: high concentration of E6446 (10 uM), with TLR7/8 agonist. On the procedure:
FIGS. 12A-12G show the interactive effects between synthesized TLR7/8 agonist and TLR9 antagonist in stimulating anti-OVA antibody production in PBMCs. At low concentrations (0.02-0.2 uM), the E6446 enhanced the effect of synthesized TLR7/8, whereas at a high concentration (10 uM), E6446 inhibited this effect. Enzyme-linked immunosorbent assay (ELISA) analysis of OVA-specific antibodies of IgG (FIGS. 12A and 12D) and IgM (FIGS. 12B and 12E) responses were performed 7 days or 14 days after stimulant incubation. Cell proliferation (FIGS. 12C and 12F) was assayed by CellTiter-glo kit. Cells were harvested and tested by Flow cytometry (G). Follicular dendritic cells (FDCs) cells were gated as CD3^−CD19^−CD21^+/CD35^+ cells. Note. CD35 and CD21 are dendritic cell (DC) markers which may represent two subpopulations of DCs. The CD21-sub-type is inhibited by high concentration of E6446. […] The data represented the mean of 3 replicates; error bars represented SD. […]

For a further assay, the target named is T1, TLR9 (Homo sapiens, UniProt Q9NR96).
T1 sequence (Q9NR96 26-1032): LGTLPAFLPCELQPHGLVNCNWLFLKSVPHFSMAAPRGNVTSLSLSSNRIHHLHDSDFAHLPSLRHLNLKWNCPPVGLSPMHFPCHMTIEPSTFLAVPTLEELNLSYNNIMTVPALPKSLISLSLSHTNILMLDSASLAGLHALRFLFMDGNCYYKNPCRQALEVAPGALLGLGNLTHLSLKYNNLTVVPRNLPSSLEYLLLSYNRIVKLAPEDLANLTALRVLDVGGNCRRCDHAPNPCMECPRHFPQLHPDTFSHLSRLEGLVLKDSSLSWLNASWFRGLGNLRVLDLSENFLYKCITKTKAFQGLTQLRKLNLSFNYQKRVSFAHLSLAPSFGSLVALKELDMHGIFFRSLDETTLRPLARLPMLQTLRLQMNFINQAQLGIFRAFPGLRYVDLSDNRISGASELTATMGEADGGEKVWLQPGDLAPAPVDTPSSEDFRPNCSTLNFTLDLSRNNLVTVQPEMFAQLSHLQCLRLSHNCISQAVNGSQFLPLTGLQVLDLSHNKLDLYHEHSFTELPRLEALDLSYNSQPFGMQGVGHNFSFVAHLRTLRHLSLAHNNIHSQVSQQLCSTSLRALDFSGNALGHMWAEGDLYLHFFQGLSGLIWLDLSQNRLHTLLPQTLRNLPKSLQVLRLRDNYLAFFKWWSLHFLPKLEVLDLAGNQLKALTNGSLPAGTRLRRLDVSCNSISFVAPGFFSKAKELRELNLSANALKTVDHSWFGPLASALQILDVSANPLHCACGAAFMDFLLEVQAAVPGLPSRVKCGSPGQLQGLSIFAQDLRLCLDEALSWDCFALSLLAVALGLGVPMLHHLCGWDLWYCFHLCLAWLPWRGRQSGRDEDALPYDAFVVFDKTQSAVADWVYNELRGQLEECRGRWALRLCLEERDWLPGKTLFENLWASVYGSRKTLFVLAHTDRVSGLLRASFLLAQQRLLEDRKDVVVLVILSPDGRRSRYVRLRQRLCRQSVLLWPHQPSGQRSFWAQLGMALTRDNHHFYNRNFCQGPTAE
Description: Inhibition of CpG2006 (TLR9 agonist) by E6446. The following applies: data not shown. Format: cell-based. On the procedure:
as §1

The subject of the next assay is PBMCs. The assay can be described thus: In vitro immunization (IVI) of PBMCs, antigen-specific IgG/IgM production by ELISA. Format: cell-based, human. On the procedure:
PBMCs were washed and diluted with PIV culture medium. Cell density was adjusted to 1*10^^7 cells/ml, treateder with 0.25 mM LLME for about 20 min. Discarded supernatant, and re-suspended cell with PIV culture medium. Adjusted cell density to 9*10^^5 cells/ml. […] Cultured the tissue for 7 days at 37° C., 5% CO2. Changed half of the medium and added factor cocktail on day 7. Cultured the cells for 7-21 days at 37° C., 5% CO2. Collected the supernatant on day 7, day 14, or day 21 for analysis of antibody production by ELISA, whereas the pellets are used for testing gene expression by PCR or RT-PCR. The collected cells were also tested in ELISpot assay for FACS analysis.
Exemplary IVI steps with addition of stimulate factors: • 1. Prepared PBMCs and treat them with LLME. • 2. […] Collected the cells and plate them into 96-well plate at a density of 6*10^4/well. • 4. […] The IgG and IgM level was examined with ELISA assay.
After day7 or day14 with addition of cytokines or antibody-enhancing composition and antigens, supernatants were harvested and added to antigen OVA-coated plates. After 2 hr incubation, a HRP-conjugated anti-human IgG or anti-human IgM was added, the amount of antigen-specific antibody was measured using TMB as substrate. The data represents the mean of 2 replicates; error bars represent SD. One representative data of 3 separate experiments is shown.
Plates were coated with antigen at 5 μg/ml overnight at 4° C. and washed them in PBST (containing 0.5% Tween-20). The plates were blocked with 5% BSA before addition of cell culture supernatants and horseradish peroxidase (HRP)-conjugated detection antibodies (dilutions: 1 in 2,500 for HRP-conjugated IgG-specific antibody (Jackson) and HRP-conjugated IgM-specific antibody. TMB substrates solution was used for measurement. […]
To further test effects of other cytokine or molecules on antibody production, a synthesized TLR7/8 agonist (50 nM and 500 nM) was added to the IVI system in the presence of antigen OVA (2 μg/ml).
An exemplary cytokine, IL1β, was tested. PBMCs were incubated in vitro with OVA, basic, and either some of the known stimulating factors ICOS, CD40L, TLR7/8 agonists or IL1β (in different doses) (1.5*10^^5 cell/well, 96 well plate). After 7 or 14 days, supernatants were harvested, and IgG/IgM antibody production was measured by ELISA assay.
(In an ELISA, binding on a coated surface is turned into a signal by an enzyme label.)

Assay [2] concerns AICDA, BLIMP-1, RAG expression. The assay can be described thus: Quantitative RT-PCR of AICDA, BLIMP-1 and RAG mRNA in immunized PBMCs. Format: cell-based, human. On the procedure:
Quantitative RT-PCR was carried out with a BioRad iCycler and the 2-(ΔΔCT) method was used to calculate relative mRNA expression levels normalized to GAPDH.
AID is known to be involved in B cell affinity maturation by inducing hyper-mutation in antibody genes. Expression of BLIMP-1 represents the proliferation and differentiation of active B cell. To test the effect of TLR agonists on the expression of AID, mRNA levels of AICDA (that encoding AID) after treatment with the synthesized TLR7/8 agonist (500 nM), in comparison with that of CD40L (55 nM), was determined by quantitative RT-PCR. PBMCs were collected from two different donors (see FIG. 8, donor 3 and donor 4). […]
To test the effect of TLR7 agonist imiquimod on the expression of AICDA and BLIMP-1, mRNA levels of AICDA and BLIMP-1 after IVI in the presence of the TLR7 agonist imiquimod (500 nM), was determined by quantitative RT-PCR, in comparison with that of CD40L (FIG. 9). […]
AICDA, RAG gene expression of the harvested cells was also measured by RT-qPCR analysis respectively. […] Data are expressed as means±SEM of triplicate independent samples (****P<0.0001, **P<0.001, by 1-way ANOVA with Sidak's multiple comparisons test).

For assay [3], the system named is GC like B cells within PBMCs. Description: FACS analysis of GC like B cells (CD3-CD19+GL7+Fas+) after in vitro immunization. Format: cell-based, human. On the procedure: We analyzed stained cells on an […] (BD) and processed flow cytometry data with FlowJo software (Tree Star). PBMCs were collected into Snap-lock microtubes. For analysis of T cells or B cells, tubes were kept at 4° C. unless mentioned otherwise. After centrifugation, cells were washed and resuspended in PBS. For analysis of T follicular helper cells, PBMCs were stained with antibodies of CD3−FITC (BD), CD4− PerCP−Cy™5.5 (BD), CXCR5−PE/Cy7 (Biolegend), and CD45RA-PE(eBioscience), respectively. T follicular helper cells were identified with CD3^+CD4^+CXCR5^+CD45RA^−. For analysis of GC like B-cells, PBMC was stained with antibodies of CD19-PE (eBioscience), GL7− Alexa Fluor 488 (eBioscience), Fas-APC (eBioscience). GC like B-cells were defined as CD19^+GL7^+Fas^+.
After FACS sorting, GC like B cells are gated as CD3^−, CD19^+, GL7^+, Fas^+ cells. Numbers within the gates represent the GC like B cells of different groups. […] The ratio of GC like B cells is about 85.25% (FIG. 5B). Similarly, the PBMCs treated with ICOS. The ratio of GC like B cells is about 90.42% (FIG. 5C).
In the same way, PBMCs were incubated in vitro with OVA, basic, and CCL1 (1 μg/ml). After 7 days, cells were harvested, and single cell is sorting with CD19, CD3, GL7, FAS antibody as specific markers, dead cells are excluded by staining with DAPI. GC like B cells are gated as CD3−CD19+GL7+Fas+ cells. […]
(In general: A flow cytometer gives signals particle by particle.)

As usually defined, the IC50 is the concentration at which inhibition is half-maximal. Read a low IC50 as higher potency. Regarding `Cl.Cl.c1cc(-c2nc3ccc(OCCCN4CCCC4)cc3o2)ccc1OCCCN1CCCC1` [E6446 dihydrochloride], in the assay with TLR7/8 (TLR7/8 versus TLR9), the “concentration to inhibit R848 relative to IC50 for CpG2006” value stood at 100 fold. The “concentration required to inhibit the effect of R848 (TLR7/8 agonist)” value in the assay with TLR7/8 (data not shown) was 2 to 8 µM. Moreover, in assay [1], the “CD21-sub-type of dendritic cells” value was “inhibited”. Also, the half-inhibitory concentration (IC50) at TLR9 fell in the range of 10 to 30 nM. Also, in the assay with PBMCs (E6446 0.02 uM and 0.2 uM, 500 nM synthesized TLR7/8 agonist, 14-day cultures, OVA+IL2+IL21), the “effect of low concentration E6446 on IgG production with TLR7/8 agonist” value was “promotes the effects of TLR7/8 agonist on antibody IgG production”. Further, the “effect of high concentration E6446 on IgG and IgM production with TLR7/8 agonist” value with PBMCs (E6446 10 uM, 500 nM synthesized TLR7/8 agonist, 7-day and 14-day cultures) is on record as “reverses the effects of TLR7/8 agonist”.

For the molecule `CC(C)Cn1cnc2c(N)nc3ccccc3c21` [imiquimod, reference compound], in assay [2] (OVA, basic, agonist 500 nM, FIG. 8 and FIG. 9), the “expression of AICDA and BLIMP-1 compared with CD40L” value is given as “far superior to CD40L”.

B1: CCL1: Recombinant Human C-C motif chemokine 1 (protein, UniProt P22362 24-96, looked up)
C-C motif chemokine 1: KSMQVPFSRCCFSFAEQEIPLRAILCYRNTSSICSNEGLIFKLKRGKEACALDTVGWVQRHRKMLRHCPSKRK
Turning to B1, the “AICDA and RAG gene expression, CCL1 plus TLR7/8 and basic vs TLR7/8 and basic only” value in assay [2] (7 days, RT-qPCR, FIGS. 25B-25C) is “increased expression level of AICDA and RAG genes”. Also, the “GL7+FAS+ cell ratio, CCL1 plus TLR7/8 and basic vs TLR7/8 and basic only” value in assay [3] (7 days, FIG. 25D) was “increases”. In addition, in the assay with PBMCs (R848 1 μg/ml, 7 days, FIG. 25A), the “antigen-specific antibody production, CCL1 plus TLR7/8 agonists and basic vs TLR7/8 agonists and basic only” value is recorded as “significantly increased”.

B2: CD40L: CD154, CD40 Ligand protein (protein, UniProt P29965 113-261, looked up)
CD40 ligand, soluble form: MQKGDQNPQIAAHVISEASSKTTSVLQWAEKGYYTMSNNLVTLENGKQLTVKRQGLYYIYAQVTFCSNREASSQAPFIASLCLKSPGRFERILLRAANTHSSAKPCGQQSIHLGGVFELQPGASVFVNVTDPSQVSHGTGFTSFGLLKL
As to B2, the “ratio of GC like B cells” value in assay [3] (antigen OVA 2 μg/ml, IL2 10 ng/ml + IL21 50 ng/ml (basic), sorted on day 14) is “about 85.25%”. The “regulation of IgG and IgM responses with dose” value with PBMCs (ICOS 24-100 nM, CD40L 10-55 nM, TLR7/8 agonist 0.1-500 nM, OVA, IL2, IL21) was “dose-dependent manner”. Further, the “IgG production on co-stimulation with IL2 and IL21” value with PBMCs (OVA 4 ug/ml, IL2 10 ng/ml, IL21 50 ng/ml, 24 nM ICOS, 55 nM CD40L, 500 nM TLR7/8 agonist, 7 or 14 days) was “synergistic, complimentary effects on enhanced IgG production”.
